From patent publication US20190209465A1, “PROCESS FOR PREPARING PHARMACEUTICAL OPHTHALMIC COMPOSITIONS OF BRINZOLAMIDE” (priority 2016, published 2019)

Experiments:
[1] = Solubility study of oil/surfactant combination (excess drug, heating, centrifugation, HPLC of supernatant); type: physicochemical; settings: for mg API dissolved temperature: on heating; for Assay: supernatant by HPLC
Procedure: Additional solubility trials were planned in order to see the impact of surfactant/oil combination on solubility of Brinzolamide. 5 g of each of the vehicles of Table 2 was added in 10 ml beakers under stirring, containing excesses of drug. Afterwards, the mixture was heated to improve solubilization. After equilibrium was achieved, the mixture was centrifuged at 4000 rpm for 10 minutes and the supernatant was quantified by high-performance liquid chromatography.

[2] = Solubility study of ophthalmically acceptable excipients (visual, incremental addition of drug, then heating); type: physicochemical
[3] = cited from earlier work
[4] = Solubility study of oil/surfactant combination (excess drug, heating, centrifugation, HPLC of supernatant); type: physicochemical; settings: in PEG 200 (5 g), on heating
[5] = in Kolliphor EL + IPM (5 g + 1 g)
[6] = in Kolliphor EL + IPM (5 g + 3 g)
[7] = in Kolliphor EL + IPM (5 g + 5 g)
[8] = in Tween 80 + IPM + Kolliphor EL (5 g + 1 g + 3.1 g)
[9] = in Tween 80 + IPM + Kolliphor EL (5 g + 1 g + 4.6 g)
[10] = in Tween 80 + IPM + Kolliphor EL (5 g + 1 g + 12.5 g)

API dissolved ([1]; in Kolliphor EL (5 g)): 203.0 mg/mL
Total mg dissolved ([1]; in Kolliphor EL (5 g)): 1015.1 mg
mg API dissolved @ RT ([1]; in Kolliphor EL (5 g)): 502.6 mg
mg API dissolved temperature ([1]; in Kolliphor EL (5 g)): 512.5 mg
Assay ([1]; in Kolliphor EL (5 g)): 177.65 mg/mL
API dissolved [1, 5]: 167.1 mg/mL
Total mg dissolved [1, 5]: 1002.3 mg
mg API dissolved @ RT [1, 5]: 802.3 mg
mg API dissolved temperature [1, 5]: 200.0 mg
Assay [1, 5]: 104.70 mg/mL
API dissolved [1, 6]: 126.6 mg/mL
Total mg dissolved [1, 6]: 1012.7 mg
mg API dissolved @ RT [1, 6]: 500.5 mg
mg API dissolved temperature [1, 6]: 512.2 mg
Assay [1, 6]: 76.75 mg/mL
API dissolved [1, 7]: 70.8 mg/mL
Total mg dissolved [1, 7]: 708.0 mg
mg API dissolved @ RT [1, 7]: 401.3 mg
mg API dissolved temperature [1, 7]: 306.7 mg
Assay [1, 7]: 68.97 mg/mL
API dissolved ([1]; in PEG 200 (5 g)): 390.1 mg/mL
Total mg dissolved ([1]; in PEG 200 (5 g)): 1950.5 mg
mg API dissolved @ RT ([1]; in PEG 200 (5 g)): 908.2 mg
Assay ([1]; in PEG 200 (5 g)): 236.63 mg/mL
API dissolved ([1]; in Transcutol (5 g)): 400.0 mg/mL
Total mg dissolved ([1]; in Transcutol (5 g)): 2.000 mg
mg API dissolved @ RT ([1]; in Transcutol (5 g)): 1008.5 mg
mg API dissolved temperature ([1]; in Transcutol (5 g)): 991.5 mg
Assay ([1]; in Transcutol (5 g)): 189.94 mg/mL
API dissolved ([1]; in Tween 80 (5 g)): 204.2 mg/mL
Total mg dissolved ([1]; in Tween 80 (5 g)): 1020.9 mg
mg API dissolved @ RT ([1]; in Tween 80 (5 g)): 501.9 mg
mg API dissolved temperature ([1]; in Tween 80 (5 g)): 519.0 mg
Assay ([1]; in Tween 80 (5 g)): 169.08 mg/mL
API dissolved ([1]; in Tween 80 + IPM (5 g + 1 g)): 133.8 mg/mL
Total mg dissolved ([1]; in Tween 80 + IPM (5 g + 1 g)): 802.8 mg
mg API dissolved @ RT ([1]; in Tween 80 + IPM (5 g + 1 g)): 400.9 mg
mg API dissolved temperature ([1]; in Tween 80 + IPM (5 g + 1 g)): 401.9 mg
Assay ([1]; in Tween 80 + IPM (5 g + 1 g)): 113.05 mg/mL
API dissolved ([1]; in Tween 80 + IPM (5 g + 3 g)): 100.3 mg/mL
Total mg dissolved ([1]; in Tween 80 + IPM (5 g + 3 g)): 802.7 mg
mg API dissolved @ RT ([1]; in Tween 80 + IPM (5 g + 3 g)): 400.3 mg
mg API dissolved temperature ([1]; in Tween 80 + IPM (5 g + 3 g)): 402.4 mg
Assay ([1]; in Tween 80 + IPM (5 g + 3 g)): 84.49 mg/mL
API dissolved ([1]; in Tween 80 + IPM (5 g + 5 g)): 90.9 mg/mL
Total mg dissolved ([1]; in Tween 80 + IPM (5 g + 5 g)): 908.6 mg
mg API dissolved @ RT ([1]; in Tween 80 + IPM (5 g + 5 g)): 400.0 mg
mg API dissolved temperature ([1]; in Tween 80 + IPM (5 g + 5 g)): 508.6 mg
Assay ([1]; in Tween 80 + IPM (5 g + 5 g)): 52.08 mg/mL
API dissolved [1, 8]: 110.9 mg/mL
Total mg dissolved [1, 8]: 1009.1 mg
mg API dissolved @ RT [1, 8]: 501.5 mg
mg API dissolved temperature [1, 8]: 507.6 mg
Assay [1, 8]: 88.93 mg/mL
API dissolved [1, 9]: 110.1 mg/mL
Total mg dissolved [1, 9]: 1002.1 mg
mg API dissolved @ RT [1, 9]: 404.0 mg
mg API dissolved temperature [1, 9]: 602.1 mg
Assay [1, 9]: 102.12 mg/mL
API dissolved [1, 10]: 43.5 mg/mL
Total mg dissolved [1, 10]: 805.6 mg
mg API dissolved @ RT [1, 10]: 403.4 mg
mg API dissolved temperature [1, 10]: 402.2 mg
Assay [1, 10]: 39.65 mg/mL
Brinzolamide dissolved in 10 g ([2]; in Anfopon): 60 mg
Brinzolamide dissolved in 10 g ([2]; in Dubcare Olga SF): 60 mg
Brinzolamide dissolved in 10 g ([2]; in Isopropyl Myristate (Kollicream IPM)): 60 mg
Brinzolamide dissolved in 10 g ([2]; in Kolliphor EL): 1015.1 mg
Brinzolamide dissolved in 10 g ([2]; in Kollisolv GTA): 210 mg
Brinzolamide dissolved in 10 g ([2]; in Myritol 318): 60 mg
Brinzolamide dissolved in 10 g ([2]; in PEG200): 2000 mg
Brinzolamide dissolved in 10 g ([2]; in Radia 7104): 60 mg
Brinzolamide dissolved in 10 g ([2]; in Sesame Oil): 60 mg
Brinzolamide dissolved in 10 g ([2]; in Silicone Oil): 60 mg
Brinzolamide dissolved in 10 g ([2]; in Transcutol): 800 mg
Brinzolamide dissolved in 10 g ([2]; in Tween 80): 2000 mg
mg API dissolved temperature [4]: 1042.3 mg
Structure (SMILES): CCN[C@H]1CN(CCCOC)S(=O)(=O)c2sc(S(N)(=O)=O)cc21 [Brinzolamide, (R)-4-ethylamino-3,4-dihydro-2-(3-methoxy) propyl-2H-thieno[3,2-e]-1,2-thiazine-6-sulfonamide 1, 1 dioxide]
solubility in alcohol and methanol ([3]; alcohol and methanol): slightly soluble
solubility in water versus pH ([3]; water, different pH): pH dependent with minimal solubility at neutral pH and increased solubility at more basic or acidic pH
solubility in water ([3]; water): insoluble
